“Also recorded” adds a separate entry of the source.
Key:
STAMP2 [1] = assay: Immunohistochemistry of cartilage, STAMP2-positive cells, HFD-induced OA mouse model; assay type: in vivo; conditions: mice fed HFD, cilostazol 30 mg/kg/day orally 10 weeks; n=10
Procedure: HFD-induced OA mouse model. Sixty mice were fed a normal chow diet for one week and then mice were fed an HFD or a SD for 25 weeks. Ten mice from each diet were used histologically examine the effect of high fat diet. Forty mice were used to examine the effect of cilostazol. Mice fed a SD or HFD for 15 weeks were orally administered cilostazol at concentrations of 30 mg/kg/day for additional 10 weeks. SD+vehicle mice (n=10) were fed a SD and received DMSO. SD+cilostazol mice (n=10) were fed a SD and received cilostazol. HFD+vehicle mice (n=10) were fed a HFD and received DMSO. HFD+cilostazol mice (n=10) were fed a HFD and received cilostazol. Immunohistochemical observation and analysis. Tissue sections were incubated in 1:70-diluted goat serum solution for 30 minutes at room temperature, and then for 2 hours with 1:100-diluted primary antibody at room temperature. Next, sections were incubated with secondary antibody for 1 hour at 37° C. and developed using ABC complex. […] Histological images were observed and analyzed using a Aperio ScanScope® CS system. Total numbers of positive for […]27 and STAMP2 in four fields per animal were counted by an observer blinded to the experiment and the percentage of positive cells were calculated.

caspase-3 and -7 = assay: Western blot of apoptosis-related factors (caspase-3 and -7 activation); assay type: cell-based, rat; conditions: 30 μM cilostazol, 1.5 mM oleate; n=4
Procedure: Rat articular chondrocytes for primary culture were isolated from knee joint cartilage slices by enzymatic digestion for 1 h with 0.2% type II collagenase (381 units/mg) in DMEM. After the isolated cells were collected by brief centrifugation, they were resuspended in DMEM supplemented with 10% (v/v) FBS, […] streptomycin and 50 units/ml penicillin (Gibco). The cells were plated on culture dishes at a density of 5×10^4 cells/cm^2. The medium was replaced every 2 days, and they reached confluence after approximately 5 days in culture. In each experiment, the cells from three animals were pooled and analyzed three times. FFA were dissolved in absolute ethanol at a concentration of 500 mM and diluted to final concentrations of FFAs with the appropriate concentration of 1% (w/v) FFA-free BSA. Controls were incubated with equal concentrations of FFA-free BSA containing ethanol. […] Cell (2×10^6) were washed twice with ice-cold PBS. Cells were resuspended in lysis buffer [200 ll of icecold solubilizing buffer (300 mM NaCl, 50 mM Tris-Cl (pH 7.6), 0.5% Triton X-100, protease inhibitor cocktail)] and incubated at 4° C. for 30 min. […] The protein concentrations of the cell lysates were measured with the Bradford protein assay reagent (Bio-Rad). […] Immunostaining with the antibodies was carried out using the Super Signal West Pico enhanced chemiluminescence substrate and detected with LAS-3000PLUS.

[2] = tested on: HFD-induced cartilage destruction; assay: HFD-induced OA mouse model, histologic examination of cartilage; assay type: in vivo; conditions: mice fed HFD 25 weeks, cilostazol 30 mg/kg/day orally for the last 10 weeks; n=10
Procedure: All procedures for animal study were approved by the Committee on Animal Investigations at Dong-A University (DIACUC-15-12). Seven-week-old male C57BL/6 mice were obtained from Samtoko (Osan, Korea). Mice were maintained in a temperature-controlled room (22° C.) on a 12:12 h light-dark cycle and free access to water and food. HFD-induced OA mouse model. Sixty mice were fed a normal chow diet for one week and then mice were fed an HFD or a SD for 25 weeks. Ten mice from each diet were used histologically examine the effect of high fat diet. Forty mice were used to examine the effect of cilostazol. Mice fed a SD or HFD for 15 weeks were orally administered cilostazol at concentrations of 30 mg/kg/day for additional 10 weeks. SD+vehicle mice (n=10) were fed a SD and received DMSO. SD+cilostazol mice (n=10) were fed a SD and received cilostazol. HFD+vehicle mice (n=10) were fed a HFD and received DMSO. HFD+cilostazol mice (n=10) were fed a HFD and received cilostazol. Tissue preparation and histologic examination. Animals were killed by ether inhalation. Whole knee joints were removed by dissection, fixed in PBS (pH 7.4) containing 4% paraformaldehyde, decalcified in 12.5% EDTA, dehydrated, and embedded in paraffin blocks. Five-micrometer microsections were prepared and stained with hematoxylin and eosin and with Safranin O-fast green.

[3] = tested on: rat articular chondrocytes; assay: Total cytosol FFA content measurement; assay type: cell-based; conditions: cells treated with 1.6 mM palmitate and 0.4 mM oleate; n=4
Procedure: Cell were collected after treatment with trypsin (0.2% trypsin, 0.02% EDTA and 0.2% glucose in PBS) and pelleted by centrifugation (200×g for 5 min at 4° C.). Cell pellet was resuspended in ice-cold hypotonic lysis medium containing 20 mM Tris-HCl, pH 7.4 and 1 mM EDTA. Cells were homogenized with a Dounce homogenizer and then centrifuged (800×g for 5 min at 4° C.). The post-nuclear supernatant fraction was ultra-centrifuged ([…] for 5 min at 4° C.) using Beckman Table-top ultracentrifuge. LD fraction with the distinct white band on the preparation was removed with a pipetman and LD-free cytosol was used for FFA measurement. Cytosol FFA levels were measured using a commercial free fatty acid quantification kit from Abcam (ab65341).

[4] = tested on: lipid droplets (LD) in rat articular chondrocytes; assay: Lipid droplet staining (Nile red, BODIPY), confocal microscopy and quantification; assay type: cell-based
Procedure: Rat articular chondrocytes for primary culture were isolated from knee joint cartilage slices by enzymatic digestion for 1 h with 0.2% type II collagenase (381 units/mg) in DMEM. After the isolated cells were collected by brief centrifugation, they were resuspended in DMEM supplemented with 10% (v/v) FBS, […] streptomycin and 50 units/ml penicillin (Gibco). The cells were plated on culture dishes at a density of 5×10^4 cells/cm^2. The medium was replaced every 2 days, and they reached confluence after approximately 5 days in culture. In each experiment, the cells from three animals were pooled and analyzed three times. FFA were dissolved in absolute ethanol at a concentration of 500 mM and diluted to final concentrations of FFAs with the appropriate concentration of 1% (w/v) FFA-free BSA. Controls were incubated with equal concentrations of FFA-free BSA containing ethanol. […] Cells cultured on a coverslip were incubated with diluted Nile red or BODIPY 493/503. Some sections were double-labelled with TUNEL and BODIPY 493/503 and counterstained with Hoechst 33342. Fluorescence images were observed and analyzed using a Zeiss LSM 510 laser-scanning confocal microscope (Goettingen, Germany). Twenty cells from each experiment were observed and auantification of fluorescence intensity of the confocal images were obtained with the use of ImageJ software. Fluorescence intensity was expressed as AU.

FSP27 = assay: Western blot of FSP27 protein in articular chondrocytes; assay type: cell-based, rat; conditions: 30 μM cilostazol, 1.5 mM oleate; n=4
Procedure: (§1) Rat articular chondrocytes for primary culture were isolated from knee joint cartilage slices by enzymatic digestion for 1 h with 0.2% type II collagenase (381 units/mg) in DMEM. After the isolated cells were collected by brief centrifugation, they were resuspended in DMEM supplemented with 10% (v/v) FBS, […] streptomycin and 50 units/ml penicillin (Gibco). The cells were plated on culture dishes at a density of 5×10^4 cells/cm^2. The medium was replaced every 2 days, and they reached confluence after approximately 5 days in culture. In each experiment, the cells from three animals were pooled and analyzed three times. FFA were dissolved in absolute ethanol at a concentration of 500 mM and diluted to final concentrations of FFAs with the appropriate concentration of 1% (w/v) FFA-free BSA. Controls were incubated with equal concentrations of FFA-free BSA containing ethanol. […] Cell (2×10^6) were washed twice with ice-cold PBS. Cells were resuspended in lysis buffer [200 ll of icecold solubilizing buffer (300 mM NaCl, 50 mM Tris-Cl (pH 7.6), 0.5% Triton X-100, protease inhibitor cocktail)] and incubated at 4° C. for 30 min. The lysates were centrifuged at 14,000 rpm for 20 min at 4° C. The protein concentrations of the cell lysates were measured with the Bradford protein assay reagent (Bio-Rad). Then, 50 μg of proteins was loaded onto 15 SDS-PAGE. The separated proteins were transferred to nitrocellulose membranes (Amersham Pharmacia Biotech, Piscataway, N.J., USA) and probed with each antibody. Immunostaining with the antibodies was carried out using the Super Signal West Pico enhanced chemiluminescence substrate and detected with LAS-3000PLUS.

STAMP2 [5] = assay: Western blot of STAMP2 protein in articular chondrocytes; assay type: cell-based, rat; conditions: 30 μM cilostazol, 1.5 mM oleate; n=4
Procedure: as §1

O=C1CCc2cc(OCCCCc3nnnn3C3CCCCC3)ccc2N1 [cilostazol]
population of STAMP2-positive cells (STAMP2 [1]): significantly increased
effect on oleate-induced activation of caspase-3 and -7 (caspase-3 and -7): prevented
HFD-induced cartilage destruction [2]: markedly prevented the HFD-induced cartilage destruction
FFA level in the cytosol [3]: significantly decreased the FFA level in the cytosol
LD size and LD accumulation ([4]; 30 μM cilostazol, 1.5 mM oleate): increases LD size and LD accumulation
LD accumulation ([4]; cilostazol in cells treated with 0.4 mM oleate and 1.6 mM palmitate): augmented the LD accumulation
total LD volume ([4]; cilostazol versus 1.5 mM oleate alone, n=4): significantly increased
oleate-induced LD fragmentation ([4]; cilostazol, 1.5 mM oleate, n=4): prevented oleate-induced LD fragmentation
effect on oleate-induced downregulation of FSP27 (FSP27): prevented the 1.5 mM oleate-induced downregulation of FSP27
effect on oleate-induced downregulation of STAMP2 (STAMP2 [5]): completely reversed the downregulation of STAMP2 induced by oleate; also recorded: reversed the 1.5 mM oleate (O)-induced downregulation of STAMP2

From US20180369327A1, “METHOD FOR TREATING OR PREVENTING OSTEOARTHRITIS” (Dong-A University Research Foundation for Industry-Academy …, priority 2017, published 2018)
